Reference: patent US12115178B2, “Acylated active agents and methods of their use for the treatment of autoimmune disorders” (Flagship Pioneering Innovations V, Inc., priority 2018, dated 2024)

What was measured:
[1] = Detection of mesalamine and compound 44 in feces after dosing with compound 44; assay type: in vivo, Swiss Webster mice; details: detected after dosing with Compound 44, oral gavage 10 mg/mL suspension at 10 mL/kg, mice
Protocol: Samples were frozen and stored at −70° C. until analysis. Quantification of mesalamine and compound 44 were done via bioanalysis using LC-MS/MS.

[2] = Detection of compound 44 in whole blood after dosing with compound 44; assay type: in vivo, Swiss Webster mice; details: detected after dosing with Compound 44, oral gavage 10 mg/mL suspension at 10 mL/kg, mice
Protocol: Whole blood (125 uL) was collected submandibular and transferred to chilled K2EDTA tubes pre-filled with 125 uL of acetonitrile and frozen at −70° C. until analysis. Mice (1-3) were sampled at 5 min, 1 hr, and 8 hr. Mice (4-6) were sampled at 15 min, 2 hours and 24 hours. Mice (7-9) were sampled at 30 min and 4 hrs. Quantification of compound 44 was done via bioanalysis using LC-MS/MS.

[3] = system: DSS Colitis; assay: In vivo DSS colitis; parameters: species or system Swiss Webster mice; details: 100 mg/kg once a day oral gavage, study day 0 through 7, compared to the vehicle control
Text: Specific pathogen-free female Swiss Webster mice, 6-8 weeks old, weighing 16-20 g were obtained from Harlan. Mice were randomized into treatment groups (n=10) based on body weight on study day −2. From study day 0 through 5, all groups were given 3% dextran sulfate sodium (DSS, Spectrum, Lot #2DC0020) in drinking water. On study day 5 through, drinking water was switched to water without DSS until the study end on day 7. From study day 0 through 7, the negative control (vehicle), positive control (cyclosporine A), and the treatment groups were given vehicle (1% Methylcellulose (Sigma, 400 cP)), cyclosporine A (70 mg/kg), and compound 44 (100 mg/kg) once a day until study day 7 via oral gavage. On study day 7, animals were anesthetized with Isoflurane and bled to exsanguination followed by cervical dislocation. The entire colon was removed and the overall efficacy of compound 44 was assessed based on colon histopathology. […] Statistical analysis was performed with GraphPad Prism (GraphPad Software). Mann-Whitney U test was used to assess significance between the vehicle control and each treatment group.

[4] = system: adoptive T-cell transfer mice; assay: Adoptive T-cell transfer study; assay type: in vivo, CB-17 SCID mice; details: compound 44 100 mg/kg, olsalazine 30 mg/kg, through day 42, compared to the vehicle control
Text: On study day 0, naïve T-cells were obtained from the spleen of 11 to 12 week-old Balb/C mice using the SCID Cell Separation Protocol with the following labelling scheme; CD4+CD45RB^highCD25− and CD4+CD45RB^lowCD25+ cell (APC CD4 Antibody (100412), FITC CD45RB Antibody (103306), PE CD25 Antibody (101904), from BioLegend, San Diego, CA, and CD4 cell enrichment kit: 19752A, Stemcell Technologies, Cambridge, MA) and the 4×10^5 of CD4^+CD45RB^highCD25− cells were transferred 6-7 weeks old CB-17 SCID mice. Recipient mice were randomized based on their body weight (n=12 mice/group), and received […] of vehicle (0.5% methyl-cellulose) (vehicle control), 0.5 mg per mouse of anti-IL-12 (positive control), 30 mg/kg of olsalazine (positive treatment group), and 100 mg/kg of compound 44 (compound treatment group) through day 42. On day 42, animals were anesthetized with Isoflurane and bled to exsanguination followed by cervical dislocation. The entire colon was removed and the overall efficacy of compound 44 was assessed based on colon length and weight per length. […] Statistical analysis was performed with GraphPad Prism (GraphPad Software). Mann-Whitney U test was used to assess significance between the vehicle control and each treatment group.

In the case of `CCCC(=O)O[C@H]1[C@H](OC(=O)CCC)COC(Oc2ccc(N)cc2C(=O)O)[C@@H]1OC(=O)CCC.Cl` (stereo in doubt) [Compound 44, 5-amino-2-(((2S,3R,4S,5R)-3,4,5-tris(butyryloxy)tetrahydro-2H-pyran-2-yl)oxy)benzoic acid hydrochloride], the “Concentration, uM (compound 44)” value [1] is reported as 10.72 µM, the “Concentration, uM (compound 44)” value [2] is reported as 0.68 µM and the “mucosal thickness (colon histopathology, FIG. 2)” value [3] is reported as “significant reduction in mucosal thickness”. The “colon length (FIG. 3A)” value [4] was “significant increased” and the “colon weight per length (FIG. 3B)” value [4] was “reduced”.
